Patent US9492413B2 (priority 2008, dated 2016)
Like-named read-outs stand apart in the source and are kept apart here.

How the values were obtained:
[1] = test system: human H5N1 isolate A/Thailand/KAN-1/2004; type: cell-based, influenza A virus
[2] = test system: JNK, p38 and ERK; settings: cited from earlier work
[3] = test system: IFN-gamma; settings: mouse, in vivo
[4] = human, in vivo
[5] = test system: H5N1 virus (MB1)
[6] = test system: poly-ADP-ribose polymerase (PARP)
[7] = test system: viral ribonucleoprotein complexes (RNP)
[8] = test system: JNK, p38 and ERK
[9] = test system: viral proteins M1, NP, NS1 and PB1
[10] = test system: H7N1 virus (FPV)
[11] = test system: IP10; settings: mouse, in vivo
[12] = test system: A/FPV/Bratislava/79 (H7N7)

| Compound | inhibition of virus titers [1] | virus-induced activation of JNK, p38 and ERK [2] | reduction of IFN-gamma m-RNA expression ([3]; ip) | reduction of IFN-gamma m-RNA expression ([3]; iv) | improvement of the symptoms, all other patients [4] | improvement of the symptoms, first day after the administration [4] | reduction of replication [5] | band of the cleaved PARP (caspase activation) [6] | retention of viral RNP complexes [7] | virus-induced activation of JNK, p38 and ERK [8] | accumulation of the viral proteins M1, NP, NS1 and PB1 [9] | reduction of replication [10] | reduction of IP10 m-RNA expression ([11]; ip) | reduction of IP10 m-RNA expression ([11]; iv) | inhibition of virus multiplication (virus titers versus time) [12] |
| --- | --- | --- | --- | --- | --- | --- | --- | --- | --- | --- | --- | --- | --- | --- | --- |
| CC(=O)Oc1ccccc1C(=O)O [acetylsalicylic acid, reference compound] | efficient inhibition of the virus titers of the H5N1 strain by several decimal powers | is not inhibited |  |  |  |  |  |  |  |  |  |  |  |  |  |
| lysine-glycine-acetylsalicylate [LG-acetylsalicylate] | efficient inhibition of the virus titers of the H5N1 strain by several decimal powers |  | 50% | 68% | improvement of the symptoms occurred on the 3rd day | significant improvement of the symptoms | more than 99% | efficiently reduced | efficient retention of viral RNP complexes | is not blocked | is not inhibited | more than 99% | 26% | 62% | equally efficiently inhibits the virus multiplication |
